Reference: ChEMBL document CHEMBL1147702, “N-Benzylbenzamides: a new class of potent tyrosinase inhibitors” (Bioorg Med Chem Lett, 2006)

Each molecule was assayed against T1, Tyrosinase (Agaricus bisporus, UniProt O42713).
T1 sequence (O42713 whole entry): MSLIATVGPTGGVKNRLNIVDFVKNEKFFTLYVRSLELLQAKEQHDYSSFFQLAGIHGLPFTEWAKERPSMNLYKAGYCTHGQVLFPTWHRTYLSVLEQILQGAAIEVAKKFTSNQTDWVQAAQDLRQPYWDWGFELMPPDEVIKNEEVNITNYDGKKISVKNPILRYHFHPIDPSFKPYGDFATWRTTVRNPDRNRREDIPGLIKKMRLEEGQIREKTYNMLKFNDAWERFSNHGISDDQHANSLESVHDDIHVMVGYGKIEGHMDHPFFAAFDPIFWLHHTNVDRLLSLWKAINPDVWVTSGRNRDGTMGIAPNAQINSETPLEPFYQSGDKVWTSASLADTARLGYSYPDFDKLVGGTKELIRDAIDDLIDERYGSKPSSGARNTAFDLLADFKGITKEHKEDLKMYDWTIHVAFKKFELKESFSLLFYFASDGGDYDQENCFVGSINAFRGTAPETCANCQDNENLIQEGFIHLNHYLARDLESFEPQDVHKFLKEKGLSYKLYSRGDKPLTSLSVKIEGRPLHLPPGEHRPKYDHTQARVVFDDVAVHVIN
Description: Inhibition of mushroom tyrosinase

Row | SMILES | IC50 | Ki
1 | O=C(NCc1ccccc1)c1ccc(O)c(O)c1 | > 2000 µM | –
2 | O=C(NCc1ccccc1)c1cc(O)c(O)c(O)c1 | 780 µM | –
3 | O=C(NCc1ccccc1)c1ccccc1 | 1990 µM | –
4 | O=C(NCc1ccc(O)cc1)c1cc(O)cc(O)c1 | 710 µM | –
5 | O=C(NCc1ccc(O)cc1O)c1cc(O)cc(O)c1 | 2.2 µM | 1.3 µM
6 | O=C(NCc1ccccc1)c1cc(O)cc(O)c1 | 700 µM | –
7 | O=C(NCc1ccc(O)cc1)c1ccc(O)c(O)c1 | > 2000 µM | –

Continued, values first:

Row | IC50 | Ki | SMILES
8 | 1820 µM | – | O=C(NCc1ccc(O)cc1)c1ccc(O)cc1O
9 | 550 µM | – | O=C(NCc1cc(O)c(O)c(O)c1)c1ccc(O)cc1O
10 | 11 µM | – | O=C(NCc1ccc(O)cc1O)c1ccc(O)c(O)c1
11 | 280 µM | – | O=C(NCc1cc(O)c(O)c(O)c1)c1ccc(O)c(O)c1
12 | 1180 µM | – | O=C(NCc1ccc(O)cc1)c1cc(O)c(O)c(O)c1
13 | 17 µM | – | O=C(NCc1ccc(O)cc1O)c1cc(O)c(O)c(O)c1
14 | 555 µM | – | O=C(NCc1cc(O)c(O)c(O)c1)c1cc(O)c(O)c(O)c1
15 | 1660 µM | – | O=C(NCc1ccccc1)c1ccc(O)cc1O
16 | 705 µM | – | O=C(NCc1cc(O)c(O)c(O)c1)c1cc(O)cc(O)c1
17 | 29 µM | – | O=C(NCc1ccc(O)cc1O)c1ccc(O)cc1O
